“And” between values parts separate entries of the source, which are not always exact repeats. Equal entries are not always repeated.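 How tested: cells in 96-well plates exposed to compound for 48 hours at five concentrations. GI50: concentration for 50% inhibition of growth. TGI denotes the concentration required for complete inhibition of growth.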
Experiments:
Experiment in all cases: NCI tumour cell line growth inhibition, 48 h
CCRF-CEM leukemia = system: CCRF-CEM leukemia
786-0 renal = system: 786-0 renal
SF-539 CNS = system: SF-539 CNS
IGROV1 ovarian = system: IGROV1 ovarian
MALME-3M melanoma = system: MALME-3M melanoma
SNB-75 CNS = system: SNB-75 CNS
BT-549 breast = system: BT-549 breast
M14 melanoma = system: M14 melanoma
LOX IMVI melanoma = system: LOX IMVI melanoma
NCI/ADR-RES ovarian = system: NCI/ADR-RES ovarian

Compound	GI50 (CCRF-CEM leukemia)	TGI (CCRF-CEM leukemia)	GI50 (786-0 renal)	TGI (786-0 renal)	GI50 (SF-539 CNS)	TGI (SF-539 CNS)	GI50 (IGROV1 ovarian)	TGI (IGROV1 ovarian)	GI50 (MALME-3M melanoma)	TGI (MALME-3M melanoma)	GI50 (SNB-75 CNS)	TGI (SNB-75 CNS)	GI50 (BT-549 breast)	TGI (BT-549 breast)	GI50 (M14 melanoma)	TGI (M14 melanoma)	GI50 (LOX IMVI melanoma)	TGI (LOX IMVI melanoma)	GI50 (NCI/ADR-RES ovarian)	TGI (NCI/ADR-RES ovarian)
COc1cc(C2NC(=O)C(C#N)=C(Nc3cccc(C)c3)S2)ccc1O (stereo not drawn)	> 100 µM	> 100 µM	> 100 µM	> 100 µM	> 100 µM	> 100 µM	> 100 µM	> 100 µM	> 100 µM	> 100 µM	> 100 µM	> 100 µM	> 100 µM	> 100 µM	> 100 µM	> 100 µM	> 100 µM	> 100 µM	> 100 µM	> 100 µM
COC(=O)c1cc2cc(/C=C3/SC(=S)N(N(C(C)=O)C(C)=O)C3=O)oc2n1Cc1ccccc1	32.3 µM	> 100 µM	21.1 µM	38.6 µM	20.4 µM	39.3 µM	22.4 µM	57.3 µM			37.1 µM	> 100 µM	24.2 µM	54.2 µM	11 µM	40.6 µM	13.9 µM	31.4 µM	14.4 µM	35 µM
O=C1Cc2cc(CCN3CCNCC3)c(Cl)cc2N1	2.98 µM	> 100 µM	> 100 µM	> 100 µM	> 100 µM	> 100 µM					15.5 µM	75.4 µM	8.18 µM	> 100 µM	3.02 µM	26.5 µM	> 100 µM	> 100 µM	5.11 µM	> 100 µM
CN1CCN(c2ccc(NC3=CC(=O)c4ncncc4C3=O)cc2)CC1	0.331 µM	> 100 µM	0.248 µM	0.645 µM	0.612 µM	1.69 µM	0.231 µM	0.542 µM	0.268 µM	0.713 µM	1.7 µM	3.11 µM	1.6 µM	3.04 µM	0.276 µM	0.744 µM	0.192 µM	0.401 µM	0.294 µM	1.01 µM
NS(=O)(=O)c1ccc(N=Nc2c[nH]c(=O)c(O)c2)cc1		44.1 µM		> 100 µM		> 100 µM		> 100 µM		82.4 µM		> 100 µM		> 100 µM		> 100 µM		> 100 µM		> 100 µM
FC(F)(F)c1cccc(-c2[nH]ncc2-c2nnnn2-c2ccccc2)c1	5.3 µM	22.9 µM	5.78 µM	22 µM	6.79 µM	21 µM	3.96 µM	15.4 µM	3.66 µM	13.3 µM	4.81 µM	20.1 µM	3.78 µM	13.9 µM	3.21 µM	11.6 µM	6.41 µM	19.5 µM	3.17 µM	25.2 µM
COC(=O)CC1=C(C)/C(=C/c2[nH]c(-c3ccc[nH]3)cc2OC)N=C1C	0.0768 µM	5.34 µM	0.191 µM	0.723 µM	0.331 µM	2.27 µM	0.34 µM	6.69 µM	0.72 µM	2.35 µM	0.137 µM	2.16 µM	0.196 µM	4.29 µM	0.272 µM	0.863 µM	0.042 µM	0.159 µM	0.324 µM	2.34 µM
COC(=O)c1cc(-c2ccc(S(C)(=O)=O)cc2)[nH]c1N/N=C/c1c(Cl)cccc1Cl	0.759 µM		0.747 µM	> 32.2 µM	0.496 µM	4.79 µM	0.482 µM	67.3 µM	1.35 µM	23.1 µM	0.298 µM	1.93 µM	0.915 µM	62 µM	0.624 µM	9.77 µM	1.61 µM	> 100 µM	0.343 µM	11.5 µM
CNc1cc(-c2cccc(OC(F)(F)F)c2)nc2ccc(N3CCCC3)cc12	2.02 µM and 1.96 µM and 1.76 µM	4.52 µM and 4.49 µM and 4.01 µM	1.56 µM and 1.71 µM and 1.55 µM	2.91 µM and 3.22 µM and 2.97 µM	1.72 µM and 1.88 µM and 1.78 µM	3.19 µM and 3.45 µM and 3.22 µM	1.57 µM and 1.74 µM and 1.72 µM	3.08 µM and 3.39 µM and 3.25 µM	1.78 µM and 1.92 µM and 1.7 µM	3.24 µM and 3.4 µM and 3.16 µM	1.7 µM and 1.48 µM	3.12 µM and 2.93 µM	2.14 µM and 1.94 µM and 1.79 µM	6.17 µM and 3.65 µM and 3.33 µM	1.64 µM and 1.72 µM and 1.69 µM	3.04 µM and 3.24 µM and 3.14 µM	1.71 µM and 1.74 µM	3.24 µM and 3.28 µM and 3.23 µM	1.78 µM and 1.89 µM and 1.6 µM	3.87 µM and 3.79 µM and 3.19 µM
Fc1ccc(Nc2nc(Nc3ccc(-c4nc5ccccc5[nH]4)cc3)c3cn[nH]c3n2)cc1	2.63 µM	6.9 µM	1.63 µM	3.11 µM	1.77 µM	3.48 µM	1.75 µM	3.84 µM	1.72 µM	3.51 µM	1.35 µM	3.57 µM	2.36 µM	6.4 µM	2.01 µM	3.95 µM	1.79 µM	3.62 µM	2.11 µM	5.04 µM
COc1ccc2c(c1)-c1c(c3cc(OC)ccc3n(CCN(C)C)c1=O)C2=O	0.199 µM	1.76 µM	2.35 µM	9.42 µM	1.99 µM	8.58 µM	0.243 µM	2.31 µM	1.17 µM	5.65 µM	1.36 µM	7.49 µM	5.84 µM	12.9 µM	1.8 µM	10.2 µM	0.658 µM	1.85 µM	0.659 µM	7.41 µM
CC/C=C\C[C@H]1C/C=C2/C(=O)C(Cl)=C[C@@H]2C/C=C\CCCC(=O)O1	0.143 µM	2.64 µM	0.521 µM	1.19 µM	0.523 µM	1.41 µM	0.605 µM	1.94 µM	0.398 µM	1.22 µM	1.19 µM	5.39 µM	0.524 µM	1.21 µM	0.681 µM	3.08 µM	0.159 µM	0.52 µM	0.423 µM	2.37 µM
C=C(C)C(=O)Nc1ccc(-c2c(-c3ccc(Oc4nccc(C)n4)c(F)c3)c3c(N)ncnc3n2C)cc1	5.25 µM	> 100 µM	2.43 µM	30.6 µM	1.88 µM	8.89 µM	3.1 µM	17.4 µM	3.29 µM	17 µM	1.18 µM	7.32 µM	2.08 µM	15.8 µM	5.64 µM	20 µM	2.61 µM	12.8 µM	10.1 µM	31 µM

Source: PubChem BioAssay (NCI)
